Assay results as given in patent publication US6620790B2, “Isolated arachidonic acid-binding heteromer and its use in cosmetics and pharmaceutics” (Societe L'Oreal S.A., priority 1909, dated 2003).

T1: arachidonic acid-binding heteromer (non-covalent complex of two MRP8 sub-units, SEQ ID NOs: 1-2, and one MRP14 sub-unit, SEQ ID NOs: 3-4; approx. 34 kDa), isola (Homo sapiens, UniProt P05109+P06702)
T1 construct: conventional steps of protein extraction from biological tissues, more specifically from skin tissues; from tissue; host or cells: psoriasis scales (human keratinocytes), membrane pellet extracted with KCl buffer
T1 sequence (P05109 1-93) 1: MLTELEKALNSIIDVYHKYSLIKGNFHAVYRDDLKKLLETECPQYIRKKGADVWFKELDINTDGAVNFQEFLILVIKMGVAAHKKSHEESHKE
T1 sequence (P05109 1-93) 2: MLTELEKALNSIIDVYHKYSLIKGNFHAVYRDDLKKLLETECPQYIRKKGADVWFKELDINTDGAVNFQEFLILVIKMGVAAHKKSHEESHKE
T1 sequence (P06702 2-114 limits assumed): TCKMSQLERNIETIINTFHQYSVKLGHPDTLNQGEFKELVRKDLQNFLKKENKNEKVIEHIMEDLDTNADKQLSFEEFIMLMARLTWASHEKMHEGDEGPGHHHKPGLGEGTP

T2: arachidonic acid-binding heteromer (non-covalent complex of two MRP8 sub-units, SEQ ID NOs: 1-2, and one MRP14 sub-unit, SEQ ID NOs: 3-4) (Homo sapiens, UniProt P05109+P06702)
T2 construct: no tag
T2 sequence (P05109 1-93): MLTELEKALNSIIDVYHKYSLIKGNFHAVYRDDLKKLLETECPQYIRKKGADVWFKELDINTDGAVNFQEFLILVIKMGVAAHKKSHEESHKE
T2 sequence (P06702 1-114): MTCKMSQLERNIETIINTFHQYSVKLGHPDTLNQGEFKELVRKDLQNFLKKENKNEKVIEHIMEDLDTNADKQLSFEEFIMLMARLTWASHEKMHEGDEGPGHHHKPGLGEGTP

T3: MRP14 (migration inhibitory factor related protein 14) (human, UniProt P06702 1-114)
T3 construct: Sub-unit of the heteromer, seen by SDS-PAGE of the purified native complex; also called MRP14 sub-unit
T3 sequence: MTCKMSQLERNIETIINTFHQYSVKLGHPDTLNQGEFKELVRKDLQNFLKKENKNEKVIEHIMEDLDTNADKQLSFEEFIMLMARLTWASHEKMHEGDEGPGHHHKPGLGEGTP


Key:
[1] = target: T1, arachidonic acid-binding heteromer (non-covalent complex of two MRP8 sub-units, SEQ ID NOs: 1-2, and one MRP14 sub-unit, SEQ ID NOs: 3-4; approx. 34 kDa), isola; assay: binding of radiolabelled ligand to heteromer by gel filtration (Superose 12, HPLC)
Procedure: Indeed, when a determined quantity of heteromer in solution is incubated in the presence of 600 nM of radiolabelled arachidonic acid, then analyzed through a filtration column over gel [(Superose 12) balanced with a Tris/HCl buffer containing 0.2M NaCl and connected to a HPLC], the radioactive peak that co-elutes elutes at 34 kDa and corresponds to the radiolabelled arachidonic acid-heteromer complex is 1.5 times greater than if the experiment were performed in the same conditions, but with 600 nM of radiolabelled oleic acid.
(§1) More particularly, this heteromer consists of two MRP8 sub-units and one MRP14 sub-unit. These two proteins, MRP8 and MRP14, are in particular described in the Odink et al., (1987) Nature 330, 80-82 publication.
(§2) The purification process of the heteromer that is implemented consists specifically of the following steps: approximately 5 g of psoriasis scales are homogenized in 15 ml of Tris/HCl buffer using a homogenizer (Polytron) then, the mixture is centrifuged at 100000 g for 1 hour at 4° C. The pellet is collected and suspended in 5 ml of the same buffer and centrifuged at 10000 g. The supernatant is eliminated. This washing operation is carried out two more times. […]

[2] = system: E-FABP (epidermal fatty acid-binding protein) of keratinocytes; conditions: Siegenthaler, G. et al. (1994) Biochem. J. 302, 363-371; cited from earlier work
[3] = target: T2, arachidonic acid-binding heteromer (non-covalent complex of two MRP8 sub-units, SEQ ID NOs: 1-2, and one MRP14 sub-unit, SEQ ID NOs: 3-4); assay: binding of linoleic acid to the heteromer (method not given)
[4] = target: T1, arachidonic acid-binding heteromer (non-covalent complex of two MRP8 sub-units, SEQ ID NOs: 1-2, and one MRP14 sub-unit, SEQ ID NOs: 3-4; approx. 34 kDa), isola; assay: dissociation constant by carbon-dextran technique with radiolabelled ligand, Scatchard plot; conditions: comparison with E-FABP (Siegenthaler et al. 1994)
Procedure: These dissociation constants are obtained by carrying out measurements using the carbon-dextran technique. This technique is as follows: aliquot portions of 0.5 μg of heteromer in solution in 100 μl of Tris buffer (50 mM Tris/HCl, 25 mM NaCl, 2.5 mM EDTA, 1 mM DTT at pH 7.5) containing 0.5% of gelatin and 1% of DMSO are incubated for 1 hour at 37° C. in the presence of increasing quantities of radiolabelled ligand, i.e, 0-10 μM for the oleic acid and the arachidonic acid. Then, each aliquot portion is treated with 50 μl a mixture of carbon-dextran T40® (5% and 0.05% respectively) at 0° C. for 10 minutes, then centrifuged at 10000 g and the radioactivity of the supernatant is measured. A saturation curve is established, and the Kd is calculated using the Scatchard plot.
as §1
as §2, with “eliminated.” for “eliminated. This washing operation is carried out two more times.”

[5] = target: T3, MRP14 (migration inhibitory factor …); assay: gel filtration (34 kDa, non-denaturing) against SDS-PAGE of the purified heteromer
Procedure: The fractions that co-elute with the radioactive peak are gathered, dialyzed through a 20 mM Tris/HCl buffer, pH of 8.0 and the solution is concentrated. This solution is passed through a […] ion exchange column (Resource Q) balanced with the last buffer. The elution in the form of a gradient is performed with this Tris buffer containing 0.5M of NaCl. In the same way as above, the column has been standardized and only the proteins that co-elute with the radioactive peak are gathered, dialyzed through a 100 mM sodium phosphate buffer with a pH of 7.0 and concentrated The last purification step is carried out on a filtration column (Superose 12) balanced with the phosphate buffer. The protein peak that elutes at 34 kDa corresponds to the purified heteromer.

Molecule	affinity for fatty acids (in words) [2]	also measured
CCCCC/C=C\C/C=C\C/C=C\C/C=C\CCCC(=O)O [arachidonic acid]	weak or nonexistent affinity	radioactive peak of ligand-heteromer complex, ratio arachidonic acid to oleic acid ([1]; 600 nM radiolabelled arachidonic acid vs 600 nM radiolabelled oleic acid, peak at 34 kDa): 1.5 times; quantity of arachidonic acid bound relative to oleic acid ([1]; up to, general statement): up to 1.5 times
CCCCC/C=C\C/C=C\CCCCCCCC(=O)O [linoleic acid]	strong affinity	binding (in words) [3]: binds
CC/C=C\C/C=C\C/C=C\CCCCCCCC(=O)O [linolenic acid]	strong affinity	–
CCCCCCCC/C=C\CCCCCCCC(=O)O [oleic acid]	strong affinity	dissociation constant in relation to oleic acid compared with that of E-FABP for the same ligand [4]: less than that of the E-FABP
CCCCCCCCCCCCCCCCCC(=O)O [stearic acid]	strong affinity	–
MRP8 (migration inhibitory factor related protein 8) (other, Sub-unit of the heteromer, seen by SDS-PAGE of the purified native complex; also called MRP8 sub-unit) MLTELEKALNSIIDVYHKYSLIKGNFHAVYRDDLKKLLETECPQYIRKKGADVWFKELDINTDGAVNFQEFLILVIKMGVAAHKKSHEESHKE	–	binding result [5]: binds
